From US4283381A, “Triiodinated aminoacetamido isophthalamide x-ray contrast agents” (Schering Aktiengesellschaft, priority 1979, dated 1981)

Assays:
[1] = test system: Mouse (20 g); assay: LD50 mouse, intravenous injection; assay type: in vivo; settings: solution 300 mg iodine/ml, injection rate 2 ml/min
Protocol: (§1) LD50 on mice and rats was determined after intravenous injection of
(§2) the solutions containing 300 mg iodine/ml with an injection rate of 2

[2] = test system: Rat (100 g); assay: LD50 rat, intravenous injection; assay type: in vivo; settings: solution 300 mg iodine/ml, injection rate 2 ml/min
Protocol: as §1, §2

[3] = Viscosity of solution with 300 mg iodine/ml, 37° C.; assay type: physicochemical
[4] = Molarity (and thus osmotic pressure) of solution with 300 mg iodine; assay type: physicochemical; settings: 300 mg iodine/ml
[5] = Iodine content of salt; assay type: physicochemical

Row | Compound | LD50 Mouse (20 g) g iodine/kg [1] [g iodine/kg] | LD50 Rat (100 g) g iodine/kg [2] [g iodine/kg] | Viscosity of solution with 300 mg iodine/ml, 37° C. in centipoises [3] [centipoises] | Molarity of solution with 300 mg iodine [4] [mol/L] | Iodine content of salt [5] [%]
1 | NCC(=O)Nc1c(I)c(C(=O)NCCO)c(I)c(C(=O)NCCO)c1I [A-Iothalamate, 5-aminoacetamido-2,4,6-triiodoisophthalic acid bis(2-hydroxyethyl)amide iothalamate] | ≥ 10.5 | ≥ 10 | 2.4 | 0.394 | 58
2 | CN(CC(O)CO)C(=O)c1c(I)c(NC(=O)CN)c(I)c(C(=O)N(C)CC(O)CO)c1I (centres unmarked) [B-Amidotrizoate, 5-amidoacetamido-2,4,6-isophthalic acid bis(N-methyl-2,3-dihydroxypropyl) diamide amidotrizoate] |  | ≥ 10 | 3.5 | 0.394 | 54
3 | CC(=O)Nc1c(I)c(NC(C)=O)c(I)c(C(=O)O)c1I [Megl. Amidotrizoate] |  | 7.5 | 5.0 | 0.787 | 47
4 | CNC(=O)c1c(I)c(NC(C)=O)c(I)c(C(=O)O)c1I [Megl. Iothalamate] | 4.5 | 7.4 | 5.2 | 0.787 | 47
5 | CNC(=O)c1c(I)c(NC(C)=O)c(I)c(C(=O)O)c1I [Na-Iothalamate] | 8.0 | 7.0 | 2.7 | 0.787 | 60
